Laboratory results taken from PMC12264794, “Homoleptic complexes of titanium(IV) fused with O^N^O Schiff base derivatives: design, BSA–DNA interaction, molecular docking, DFT and cytotoxicity” (RSC Advances, 2025).
Like-named read-outs stand apart in the source and are kept apart here.

What was measured:
CT-DNA [1] = assay: Competitive EtBr displacement fluorescence quenching on CT-DNA; assay type: binding, calf; conditions: for KSV, Stern–Volmer quenching constant: EB-CT-DNA adduct
Protocol: Using fluorescence spectroscopy, the competitive binding relationship between metal complexes and CT-DNA bound to ethidium bromide was investigated. EtBr and CT-DNA solutions at a 5 mM concentration were made in PBS buffer (pH 7.4) for the fluorescence studies. After that, the reference solutions were allowed to settle at room temperature for an hour and the CT-DNA reference solution (200 μM) was coupled to ethidium bromide (50 μM) and allowed to rest for the specified period. The excitation and emission wavelengths were set at 460 nm and incremental addition of Ti(IV) complex concentrations ranging from 0 to 80 μM were used to titrate constant concentrations of EtBr-CT-DNA solution.[43,44]
A known volume of 200 μM CT-DNA (5 Mm) and 50 μM EB was mixed with an aqueous PBS buffer to make an EB-CT-DNA solution. The mixture was then kept at room temperature for 20 minutes before the complexes were titrated. Analysis of the competitive interaction mechanisms of the complexes towards CT-DNA involved the incremental addition of Ti(IV) complexes to the mixture of EB-CT-DNA. The modification in the emission spectral profile of EB-DNA indicated the impact of the addition of the complexes and there was a noticeable decrease in inflorescence intensity when the Ti(IV) complexes (0–100 μM) were added to the EB-CT-DNA system (Fig. 4(a), ESI Fig. S63 ^† and Table 2).
The linear plot of I0/I versus [complex] […] KSV is the Stern–Volmer quenching constant, and [Q] is the quencher concentration.6 Kapp × [Complex]50 = KEtBr × [EtBr]For the Ti(IV) complexes, Kapp (the apparent binding constant) was calculated using eqn (6), where KEtBr (1.0 × 10^7 M^−1) is the DNA binding constant of EB, [EtBr] is the concentration of EB = 10 μM and [Complex]50 denotes the complex concentration at which the fluorescence intensity of the DNA-EB adduct is reduced to 50%. […] Furthermore, the number of binding sites (n) and the equilibrium binding constant K were ascertained by using the Scatchard eqn (7):7 Log(I0 − I/I) = log K + n log[Q]where I0 is the fluorescence intensity of CT-DNA + EtBr in the absence of complex and I points to the fluorescence intensities of CT-DNA in the presence of a complex of concentration [Q]. The significant quenching in fluorescence intensity of all metal complexes (Table 2), the Stern–Volmer (ESI Fig. S64 ^†) and Scatchard plots (Fig. 4(c), ESI Fig. S65 ^† and Table 2), and other computations performed, supported the strong groove-binding interaction mode with CT-DNA.

CT-DNA [2] = assay: Agarose gel electrophoresis, CT-DNA cleavage; assay type: biochemical, calf; conditions: complex at 3, 1.5 and 0.75 mM
Protocol: The interaction and effectiveness of the Ti(IV) complex on CT-DNA were investigated using the agarose gel electrophoresis technique. This was accomplished by incubating the reaction mixtures separately, each of which contained 20 μL of CT-DNA and 20 μL of titanium complexes in PBS buffer solution, at 310 K for one hour. The tracking […] dye (1 μL) and all of the prepared solutions (5 μL) were then combined and applied to the wells of a 1% agarose gel containing 1 mM ethidium bromide that was prepared well in advance. Then the reaction mixture of complexes and CT-DNA was loaded in the wells separately using 0.25% […] dye. The electrophoresis mobility experiment was then carried out in an EDTA-PBS buffer for 60 minutes at a constant electrical voltage of 100 V until the dye reached 50% of the gel distribution area. In order to evaluate the degree of DNA binding capacity of the Ti(IV) complexes, the resultant bands were finally captured on a camera using the AXYGEN digital camera Gel Documentation System under UV light.[49–51]
There are two types of cleavage of nucleic acid chains: enzymatic and non-enzymatic. Either the oxidative cleavage of deoxyribose residues or the hydrolysis of phosphodiester links, known as hydrolytic cleavage, can result in non-enzymatic cleavage. Strong Lewis acidic metal complexes with transition metals are the main source of hydrolytic cleavage. The hydrolysis of the phosphate backbone of the nucleic acid is facilitated by a metal–phosphate intermediate. In order to understand the catalytic mechanisms of natural nucleases and to develop medications that target nucleic acids, it is crucial to design and synthesize metal complexes that can hydrolytically cleave the phosphodiester link. Agarose gel electrophoresis was used to test the capacity of the complex to cleave CT-DNA.

MCF7 cells = assay: MTT cytotoxicity assay, MCF7; assay type: cell-based, human; conditions: 48 h of drug exposure
Protocol: The in vitro cytotoxicity of the Ti(IV) complexes under investigation was investigated using MTT, a micro-titration colorimetric method. The in vitro cytotoxicity test of the Ti(IV) complexes was evaluated against the cervical cancer cell line (HeLa), human breast cancer cell line (MCF-7) and human kidney normal cell line (HEK-293).[65,66]
In the cytotoxicity assay, tetrazolium salt 3-[4,5-dimethylthiazol-2-yl]-2,5diphenyl tetrazolium bromide (MTT) was utilized to assess cell viability. The MTT powder was diluted in Dulbecco's PBS (stock solution of MTT (5 mg mL^−1)) to attain a final concentration of 0.5 mg mL^−1 and a […] was used to filter and sterilize the stock solution, which was then kept at 2–6 °C. In metabolically active cells, MTT is reduced to produce an insoluble purple formazan product. In the exponential phase, cells were taken out of the stored cultures after the 48-hour recovery period, following seeding onto 96-well plates at a density of 1 × 10^4 cells per well in 100 μL medium at 37 °C in a 95% air and 5% CO2 environment, and the cells were incubated for 12 hours. Cell lines were treated for 48 hours with Ti(IV) complexes at varying doses (9.5–300 μM) and cis-platin as a control (apart from normal cells). After 48 hours of incubation at 37 °C, the medium was removed and 100 μL of DMSO was added to dissolve the […], and the culture plates were shaken for five minutes. A Bio-Rad xMARK™ multi-well plate reader was used to measure the absorbance of each well at 570 nm. Using eqn (2), the percentage viability, which represents the relative viability of the treated cells in comparison to the control cells, was calculated, and the IC50 values and standard deviation of the substances under investigation were calculated in triplicate.2 [drawing 2]
An MTT assay was used to examine the cytotoxic effectiveness of the produced Ti(IV) complexes. After 48 hours of incubation, the cytotoxicity of Ti-1-IS to Ti-6-IBr was evaluated against human cancer cell lines, such as breast carcinoma (MCF7) and cervical cancer (HeLa), as well as the non-cancerous human embryonic kidney (HEK) cell line, by using the widely used therapeutic drug, cis-platin, as a positive control by following the standard protocol.

[3] = n-Octanol/water partition coefficient, shake flask method; assay type: physicochemical; conditions: partition coefficient of n-octanol/water
Protocol: Drugs were measured for oral bioavailability and cellular accumulation using their lipophilicity. This can be stated as the log P value of the n-octanol/water partition coefficient, which is an essential prerequisite for many in silico medicinal chemistry approaches. The n-octanol/water partition coefficient (log Po/w), where Po/w = the octanol/water partition coefficient, was analyzed using the shake flask method. The experimental log Po/w values of these complexes were discovered to be between 0.12 and 0.87 (ESI Fig. S60 ^† and Table 1).

[4] = from eqn (6), complex concentration at 50% fluorescence

Log Po/w [3] | SMILES | KSV, Stern–Volmer quenching constant (CT-DNA [1]) [M⁻¹] | Kapp, apparent DNA binding constant (CT-DNA [1]; [4]) [M⁻¹] | DNA cleavage activity (CT-DNA [2]) | IC50 (MCF7 cells) [µM] | Kapp, apparent DNA binding constant (CT-DNA [1]) [M⁻¹] | KSV, Stern–Volmer quenching constant (CT-DNA [1]; text value) [M⁻¹]
0.87 | [O-]C(=NN=Cc1ccccc1[O-])c1ccncc1.[O-]C(=NN=Cc1ccccc1[O-])c1ccncc1.[Ti+4] [Ti-1-IS] | 6000 | 3.03e+06 | less cleavage activity | 109.22 ± 0.1 | – | –
0.15 | Brc1ccc2c(c1)C=NN=C(c1ccncc1)[O][Ti]1([O]C(c3ccncc3)=NN=Cc3cc(Br)ccc3[O]1)[O]2 (centres unmarked) [Ti-6-IBr] | 16000 | 4.24e+06 | comparatively higher DNA binding cleavage in higher concentration | 84.67 ± 0.5 | 4.24e+06 | –
0.12 | [O-]C(=NN=Cc1cc(F)ccc1[O-])c1ccncc1.[O-]C(=NN=Cc1cc(F)ccc1[O-])c1ccncc1.[Ti+4] [Ti-4-IF] | 14000 | 3.41e+06 | higher DNA cleavage even at the lowest concentration | 109.8 ± 0.2 | – | –
0.78 | [O-]C(=NN=Cc1c([O-])ccc2ccccc12)c1ccncc1.[O-]C(=NN=Cc1c([O-])ccc2ccccc12)c1ccncc1.[Ti+4] [Ti-2-IN] | 19000 | 3.56e+06 | less cleavage activity | 85.04 ± 0.5 | – | –
0.13 | COc1cccc(C=NN=C([O-])c2ccncc2)c1[O-].COc1cccc(C=NN=C([O-])c2ccncc2)c1[O-].[Ti+4] [Ti-3-IO] | 16000 | 3.4e+06 | higher DNA cleavage even at the lowest concentration | 102.9 ± 0.3 | – | –
0.31 | [O-]C(=NN=Cc1cc(Cl)ccc1[O-])c1ccncc1.[O-]C(=NN=Cc1cc(Cl)ccc1[O-])c1ccncc1.[Ti+4] [Ti-5-ICl] | 26000 | 3.43e+06 | comparatively higher DNA binding cleavage in higher concentration | 65.2 ± 1.2 | – | 26000
